According to ChEMBL document CHEMBL5715954, “Silencing c-Myc translation as a therapeutic strategy through targeting PI3Kδ and CK1ε in hematological malignancies” (Blood, 2017):

What was measured:
Set-up in all cases: scale not given: the % may be the effect or the level left
[1] = molecular target: Casein kinase II subunit alpha (Homo sapiens) (UniProt P68400); assay: Inhibition of human CK2a assessed as enzyme activity at 1 uM using RRRDDDSDDD as substrate preincubated for 20 mins followed by [gamma-33P]-ATP addition and measured after 120 mins by radiometric Hot-SpotSM Kinase assay relative to control
[2] = molecular target: T1, Serine/threonine-protein kinase LATS2 (Homo sapiens) (UniProt Q9NRM7); assay: Inhibition of human LATS2 assessed as enzyme activity at 1 uM using KKRNRRLSVA as substrate preincubated for 20 mins followed by [gamma-33P]-ATP addition and measured after 120 mins by radiometric Hot-SpotSM Kinase assay relative to control
T1 sequence (whole entry): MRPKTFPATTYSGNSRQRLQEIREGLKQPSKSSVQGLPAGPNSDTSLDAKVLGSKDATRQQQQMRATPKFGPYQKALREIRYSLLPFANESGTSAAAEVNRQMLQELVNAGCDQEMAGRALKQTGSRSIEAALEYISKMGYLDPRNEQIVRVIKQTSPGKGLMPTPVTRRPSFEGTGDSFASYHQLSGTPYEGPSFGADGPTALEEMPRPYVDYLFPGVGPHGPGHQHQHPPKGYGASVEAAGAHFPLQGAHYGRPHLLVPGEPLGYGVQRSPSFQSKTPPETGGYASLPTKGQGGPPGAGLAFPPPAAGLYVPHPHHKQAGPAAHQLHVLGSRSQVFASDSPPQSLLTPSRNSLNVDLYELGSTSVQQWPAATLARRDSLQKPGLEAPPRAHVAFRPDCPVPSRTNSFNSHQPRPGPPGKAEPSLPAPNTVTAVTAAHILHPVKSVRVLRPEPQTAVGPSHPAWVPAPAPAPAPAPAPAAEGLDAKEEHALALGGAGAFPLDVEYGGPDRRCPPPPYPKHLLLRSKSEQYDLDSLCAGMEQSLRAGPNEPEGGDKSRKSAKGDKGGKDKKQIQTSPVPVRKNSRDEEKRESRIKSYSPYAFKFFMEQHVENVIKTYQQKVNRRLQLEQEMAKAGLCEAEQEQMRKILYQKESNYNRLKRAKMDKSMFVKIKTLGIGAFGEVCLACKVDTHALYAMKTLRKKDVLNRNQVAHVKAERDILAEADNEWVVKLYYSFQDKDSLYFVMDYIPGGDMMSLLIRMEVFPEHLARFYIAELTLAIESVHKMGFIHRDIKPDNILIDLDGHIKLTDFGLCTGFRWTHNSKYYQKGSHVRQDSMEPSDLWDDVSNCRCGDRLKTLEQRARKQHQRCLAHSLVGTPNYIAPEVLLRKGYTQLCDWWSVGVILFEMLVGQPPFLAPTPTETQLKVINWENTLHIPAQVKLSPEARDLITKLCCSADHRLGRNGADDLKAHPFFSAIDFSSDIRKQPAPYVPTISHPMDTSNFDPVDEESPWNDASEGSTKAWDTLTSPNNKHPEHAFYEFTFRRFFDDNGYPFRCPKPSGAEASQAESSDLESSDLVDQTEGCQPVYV

[3] = molecular target: Ribosomal protein S6 kinase alpha-5 (Homo sapiens) (UniProt O75582); assay: Inhibition of human MSK1 assessed as enzyme activity at 1 uM using GRPRTSSFAEG as substrate preincubated for 20 mins followed by [gamma-33P]-ATP addition and measured after 120 mins by radiometric Hot-SpotSM Kinase assay relative to control
[4] = molecular target: T2, Phosphorylase b kinase gamma catalytic chain, liver/testis isoform (Homo sapiens) (UniProt P15735); assay: Inhibition of human PHKg2 assessed as enzyme activity at 1 uM using KKLNRTLSFAEPG as substrate preincubated for 20 mins followed by [gamma-33P]-ATP addition and measured after 120 mins by radiometric Hot-SpotSM Kinase assay relative to control
T2 sequence (whole entry): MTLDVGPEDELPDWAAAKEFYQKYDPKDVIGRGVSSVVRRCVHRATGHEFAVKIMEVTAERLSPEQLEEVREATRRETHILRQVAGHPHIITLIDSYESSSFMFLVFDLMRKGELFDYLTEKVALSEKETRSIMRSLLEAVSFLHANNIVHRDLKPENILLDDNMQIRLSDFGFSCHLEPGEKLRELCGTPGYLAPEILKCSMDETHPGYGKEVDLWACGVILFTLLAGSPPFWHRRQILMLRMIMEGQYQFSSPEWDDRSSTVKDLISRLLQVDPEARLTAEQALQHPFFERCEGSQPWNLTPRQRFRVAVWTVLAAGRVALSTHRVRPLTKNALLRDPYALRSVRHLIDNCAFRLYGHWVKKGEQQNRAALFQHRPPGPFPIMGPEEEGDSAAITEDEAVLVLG

[5] = molecular target: T3, Serine/threonine-protein kinase Sgk3 (Homo sapiens) (UniProt Q96BR1); assay: Inhibition of human SGK3 assessed as enzyme activity at 1 uM using GRPRTSSFAEG as substrate preincubated for 20 mins followed by [gamma-33P]-ATP addition and measured after 120 mins by radiometric Hot-SpotSM Kinase assay relative to control
T3 sequence (whole entry): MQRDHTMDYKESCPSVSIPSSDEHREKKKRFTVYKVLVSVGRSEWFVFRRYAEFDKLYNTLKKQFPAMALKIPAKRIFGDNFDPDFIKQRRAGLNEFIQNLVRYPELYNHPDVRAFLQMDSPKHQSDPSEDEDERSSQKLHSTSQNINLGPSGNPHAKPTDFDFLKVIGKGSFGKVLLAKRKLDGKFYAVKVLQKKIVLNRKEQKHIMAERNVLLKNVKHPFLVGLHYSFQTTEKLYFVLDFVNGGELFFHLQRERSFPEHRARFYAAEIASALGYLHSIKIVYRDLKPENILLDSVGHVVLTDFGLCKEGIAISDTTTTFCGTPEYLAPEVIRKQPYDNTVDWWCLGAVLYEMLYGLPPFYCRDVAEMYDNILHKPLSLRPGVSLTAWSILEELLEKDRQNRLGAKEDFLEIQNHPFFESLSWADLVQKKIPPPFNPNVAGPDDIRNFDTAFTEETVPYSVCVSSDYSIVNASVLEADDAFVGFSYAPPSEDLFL

Sequence of Casein kinase II subunit alpha (Homo sapiens) (P68400 whole entry, looked up): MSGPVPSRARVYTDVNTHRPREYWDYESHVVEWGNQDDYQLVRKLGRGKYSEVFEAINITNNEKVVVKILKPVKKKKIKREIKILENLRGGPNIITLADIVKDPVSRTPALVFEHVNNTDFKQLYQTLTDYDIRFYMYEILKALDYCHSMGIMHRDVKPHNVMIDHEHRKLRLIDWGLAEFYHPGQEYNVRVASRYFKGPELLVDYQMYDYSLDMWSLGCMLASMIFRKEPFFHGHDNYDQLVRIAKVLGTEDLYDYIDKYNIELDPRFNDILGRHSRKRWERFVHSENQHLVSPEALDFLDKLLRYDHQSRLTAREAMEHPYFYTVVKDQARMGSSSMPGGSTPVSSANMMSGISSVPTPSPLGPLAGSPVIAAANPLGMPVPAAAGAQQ
Sequence of Ribosomal protein S6 kinase alpha-5 (Homo sapiens) (O75582 whole entry, looked up, canonical isoform): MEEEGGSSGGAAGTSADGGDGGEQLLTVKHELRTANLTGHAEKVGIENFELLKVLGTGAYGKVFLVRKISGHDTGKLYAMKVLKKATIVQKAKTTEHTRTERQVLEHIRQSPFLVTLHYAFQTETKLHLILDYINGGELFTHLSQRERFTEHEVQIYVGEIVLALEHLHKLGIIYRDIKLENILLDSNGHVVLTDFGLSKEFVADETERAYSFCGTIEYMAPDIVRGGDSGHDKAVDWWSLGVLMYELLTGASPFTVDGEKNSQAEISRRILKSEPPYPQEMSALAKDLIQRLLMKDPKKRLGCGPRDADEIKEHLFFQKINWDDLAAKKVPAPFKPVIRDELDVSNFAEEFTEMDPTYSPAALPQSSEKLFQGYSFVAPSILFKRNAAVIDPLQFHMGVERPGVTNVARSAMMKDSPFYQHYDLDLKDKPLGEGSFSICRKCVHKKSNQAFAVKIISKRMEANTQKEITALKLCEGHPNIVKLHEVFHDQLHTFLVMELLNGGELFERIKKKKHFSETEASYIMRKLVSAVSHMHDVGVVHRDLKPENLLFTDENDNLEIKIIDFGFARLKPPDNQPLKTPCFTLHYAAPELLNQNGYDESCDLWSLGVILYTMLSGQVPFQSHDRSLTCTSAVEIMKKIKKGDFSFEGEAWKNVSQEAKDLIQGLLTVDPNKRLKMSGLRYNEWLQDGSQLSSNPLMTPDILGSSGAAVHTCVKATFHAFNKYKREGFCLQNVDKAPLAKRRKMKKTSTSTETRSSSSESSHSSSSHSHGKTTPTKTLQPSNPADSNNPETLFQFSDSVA

SMILES	Activity [1]	Activity [2]	Activity [3]	Activity [4]	Activity [5]
C[C@H](Nc1ncnc2nc[nH]c12)c1cc2cccc(Cl)c2c(=O)n1-c1ccccc1	83.6%	91.9%	96.3%	102%	97.3%
CC[C@H](Nc1ncnc2[nH]cnc12)c1nc2cccc(F)c2c(=O)n1-c1ccccc1	96%	91.5%	94.6%	89.1%	97.2%
CC(C)Oc1ccc(-c2nn([C@@H](C)c3oc4ccc(F)cc4c(=O)c3-c3cccc(F)c3)c3ncnc(N)c23)cc1F [UMBRALISIB]	78.2%	103%	96.8%	95.4%	98.7%
